Test results published in patent US8415482B2, “Proline derivatives” (National Health Research Institutes, priority 2009, dated 2013).

Tested on: HCV replication
Assay: Inhibiting HCV replication, Ava5-EG(Δ4AB)SEAP reporter-based cell line, SEAP activity
Settings: Hepatitis C virus, 72 h, Ava5-EG(Δ4AB)SEAP cells; 48 hours + additional 24 hours treatment; SEAP activity in culture medium; read-out: EC50 values (i.e., the concentration of a test compound at which 50% HCV replication is inhibited)
Procedure: The inhibitory activity of compounds of this invention against HCV replication was assessed using Ava5-EG(Δ4AB)SEAP, a reporter-based cell line, according to the methods described in Lee et al., Anal. Biochem., 316:162-70 (2003) and Lee et al., J. Virol Methods, 116:27-33 (2004). Briefly, Ava5-EG(Δ4AB)SEAP cells were cultured in a medium containing 500 μg/mL G418 (geneticin) and 10 μg/mL blasticidin in a 5% CO2 incubator. G418 and blasticidin were purchased from Invitrogen (Carlsbad, Calif.). The cells were seeded in a 96-well plate (5×10^3 cells/100 μL-well) and incubated at 37° C. for 24 hours. They were then treated with a solution of a test compound in DMSO at various concentrations. After 48 hours, the culture medium in each well was replaced with a fresh medium containing the test compound at the same concentrations to remove secreted alkaline phosphatase (SEAP) accumulated in the culture medium, if any. The cells were cultured for additional 24 hours. The culture medium was then collected and tested for SEAP activity using a Phospha-Light assay kit (Tropix, Foster, Calif., USA).

`CC(C)(C)OC(=O)N[C@@H](C(=O)N1CCC[C@H]1c1ncc(-c2ccc(-c3ccc(-c4cnc([C@@H]5CCCN5C(=O)[C@H](NC(=O)OC(C)(C)C)c5ccccc5)s4)cc3)cc2)s1)c1ccccc1` [Compound 6a, di-tert-butyl (1R,1′R)-2,2′-((2S,2′S)-2,2′-(5,5′-(biphenyl-4,4′-diyl)bis(thiazole-5,2-diyl))bis(pyrro-lidine-2,1-diyl))bis(2-oxo-1-phenylethane-2,1-diyl)dicarbamate] showed an EC50 of at most 500 nM.
For `O=C(N[C@@H](C(=O)N1CCC[C@H]1c1ncc(-c2ccc(-c3ccc(-c4cnc([C@@H]5CCCN5C(=O)[C@H](NC(=O)C5CC5)c5ccccc5)s4)cc3)cc2)s1)c1ccccc1)C1CC1` [Compound 7a-A, N,N′-(1R,1′R)-2,2′-((2S,2′S)-2,2′-(5,5′-(biphenyl-4,4′-diyl)bis(thiazole-5,2-diyl))bis(pyrrolidine-2,1-diyl))bis(2-oxo-1-phenylethane-2,1-diyl)dicyclopropanecarboxamide], the EC50 was at most 500 nM.
`O=C(N[C@@H](C(=O)N1CCC[C@H]1c1ncc(-c2ccc(-c3ccc(-c4cnc([C@@H]5CCCN5C(=O)[C@H](NC(=O)N5CCOCC5)c5ccccc5)s4)cc3)cc2)s1)c1ccccc1)N1CCOCC1` [Compound 7a-B] showed an EC50 of at most 500 nM.
In the case of `O=C(N[C@@H](C(=O)N1C[C@H](F)C[C@H]1c1ncc(-c2ccc(-c3ccc(-c4cnc([C@@H]5C[C@@H](F)CN5C(=O)[C@H](NC(=O)C5CC5)c5ccccc5)s4)cc3)cc2)s1)c1ccccc1)C1CC1` [Compound 7b-A], the EC50 is reported as at most 500 nM.
In the case of `O=C(N[C@@H](C(=O)N1C[C@H](F)C[C@H]1c1ncc(-c2ccc(-c3ccc(-c4cnc([C@@H]5C[C@@H](F)CN5C(=O)[C@H](NC(=O)N5CCOCC5)c5ccccc5)s4)cc3)cc2)s1)c1ccccc1)N1CCOCC1` [Compound 7b-B], the EC50 is reported as at most 500 nM.
`O=C(N[C@@H](C(=O)N1C[C@@H](F)C[C@H]1c1ncc(-c2ccc(-c3ccc(-c4cnc([C@@H]5C[C@H](F)CN5C(=O)[C@H](NC(=O)C5CC5)c5ccccc5)s4)cc3)cc2)s1)c1ccccc1)C1CC1` [Compound 7c-A] was tested, and the EC50 was at most 500 nM.
With `O=C(N[C@@H](C(=O)N1C[C@@H](F)C[C@H]1c1ncc(-c2ccc(-c3ccc(-c4cnc([C@@H]5C[C@H](F)CN5C(=O)[C@H](NC(=O)N5CCOCC5)c5ccccc5)s4)cc3)cc2)s1)c1ccccc1)N1CCOCC1` [Compound 7c-B] the EC50 was at most 500 nM.
For `CC(C)(C)OC(=O)N[C@@H](C(=O)N1CCC[C@H]1c1nc(-c2ccc(-c3ccc(-c4noc([C@@H]5CCCN5C(=O)[C@H](NC(=O)OC(C)(C)C)c5ccccc5)n4)cc3)cc2)c[nH]1)c1ccccc1` [Compound 25a], the EC50 was at most 500 nM.
`O=C(N[C@@H](C(=O)N1CCC[C@H]1c1nc(-c2ccc(-c3ccc(-c4noc([C@@H]5CCCN5C(=O)[C@H](NC(=O)C5CC5)c5ccccc5)n4)cc3)cc2)c[nH]1)c1ccccc1)C1CC1` [Compound 26a] gave an EC50 of at most 500 nM.
`CC(C)(C)OC(=O)N[C@@H](C(=O)N1CCC[C@H]1c1nc(-c2ccc(-c3ccc(-c4csc([C@@H]5CCCN5C(=O)[C@H](NC(=O)OC(C)(C)C)c5ccccc5)n4)cc3)cc2)no1)c1ccccc1` [Compound 29a] gave an EC50 of at most 500 nM.
For `O=C(N[C@@H](C(=O)N1CCC[C@H]1c1nc(-c2ccc(-c3ccc(-c4csc([C@@H]5CCCN5C(=O)[C@H](NC(=O)C5CC5)c5ccccc5)n4)cc3)cc2)no1)c1ccccc1)C1CC1` [Compound 30a], the EC50 was at most 500 nM.
Work on `CC(C)(C)OC(=O)N[C@@H](C(=O)N1CCC[C@H]1c1nc(-c2ccc(-c3ccc(-c4cnc([C@@H]5CCCN5C(=O)[C@H](NC(=O)OC(C)(C)C)c5ccccc5)s4)cc3)cc2)no1)c1ccccc1` [Compound 33a] yielded an EC50 of at most 500 nM.
With `O=C(N[C@@H](C(=O)N1CCC[C@H]1c1nc(-c2ccc(-c3ccc(-c4cnc([C@@H]5CCCN5C(=O)[C@H](NC(=O)C5CC5)c5ccccc5)s4)cc3)cc2)no1)c1ccccc1)C1CC1` [Compound 34a] the EC50 was at most 500 nM.
`CC(C)(C)OC(=O)N[C@@H](C(=O)N1CCC[C@H]1c1ncc(-c2ccc(-c3ccc(-c4csc([C@@H]5CCCN5C(=O)[C@H](NC(=O)OC(C)(C)C)c5ccccc5)n4)cc3)cc2)[nH]1)c1ccccc1` [Compound 37a] gave an EC50 of at most 500 nM.
Compound `O=C(N[C@@H](C(=O)N1CCC[C@H]1c1ncc(-c2ccc(-c3ccc(-c4csc([C@@H]5CCCN5C(=O)[C@H](NC(=O)C5CC5)c5ccccc5)n4)cc3)cc2)[nH]1)c1ccccc1)C1CC1` [Compound 38a] has an EC50 of at most 500 nM.
`CC(C)(C)OC(=O)N[C@@H](C(=O)N1CCC[C@H]1c1ncc(-c2ccc(-c3ccc(-c4cnc([C@@H]5CCCN5C(=O)[C@H](NC(=O)OC(C)(C)C)c5ccccc5)s4)cc3)cc2)[nH]1)c1ccccc1` [Compound 41a] was tested, and the EC50 was at most 500 nM.
For `O=C(N[C@@H](C(=O)N1CCC[C@H]1c1ncc(-c2ccc(-c3ccc(-c4cnc([C@@H]5CCCN5C(=O)[C@H](NC(=O)C5CC5)c5ccccc5)s4)cc3)cc2)[nH]1)c1ccccc1)C1CC1` [Compound 42a, N—((R)-2-((S)-2-(5-(4′-(2-((S)-1-((R)-2-(cyclopropanecarboxamido)-2-phenylacetyl)pyrrolidin-2-yl)-1H-imidazol-4-yl)biphenyl-4-yl)thiazol-2-yl)pyrrolidin-1-yl)-2-oxo-1-phenyl-ethyl)cyclopropanecarboxamide], the EC50 was at most 500 nM.
With `CC(C)(C)OC(=O)N[C@@H](C(=O)N1CCC[C@H]1c1nc(-c2ccc(-c3ccc(-c4cnc([C@@H]5CCCN5C(=O)[C@H](NC(=O)OC(C)(C)C)c5ccccc5)s4)cc3)cc2)cs1)c1ccccc1` [Compound 45a] the EC50 was at most 500 nM.
Compound `O=C(N[C@@H](C(=O)N1CCC[C@H]1c1nc(-c2ccc(-c3ccc(-c4cnc([C@@H]5CCCN5C(=O)[C@H](NC(=O)C5CC5)c5ccccc5)s4)cc3)cc2)cs1)c1ccccc1)C1CC1` [Compound 46a] has an EC50 of at most 500 nM.
Work on `CC(=O)N[C@H](C(=O)N1CCC[C@H]1c1ncc(-c2ccc(-c3ccc(-c4cnc([C@@H]5CCCN5C(=O)[C@H](NC(C)=O)c5ccccc5)s4)cc3)cc2)s1)c1ccccc1` [Compound 51a] yielded an EC50 of at most 500 nM.
Work on `CCCCCC(=O)N[C@@H](C(=O)N1CCC[C@H]1c1ncc(-c2ccc(-c3ccc(-c4cnc([C@@H]5CCCN5C(=O)[C@H](NC(=O)CCCCC)c5ccccc5)s4)cc3)cc2)s1)c1ccccc1` [Compound 58a] yielded an EC50 of at most 500 nM.
For `CC(C)C(=O)N[C@H](C(=O)N1CCC[C@H]1c1ncc(-c2ccc(-c3ccc(-c4cnc([C@@H]5CCCN5C(=O)[C@H](NC(=O)C(C)C)c5ccccc5)s4)cc3)cc2)s1)c1ccccc1` [Compound 61a], the EC50 was at most 500 nM.
With `O=C(N[C@H](C(=O)N1CCC[C@H]1c1ncc(-c2ccc(-c3ccc(-c4cnc([C@@H]5CCCN5C(=O)[C@H](NC(=O)C5CCC5)c5ccccc5)s4)cc3)cc2)s1)c1ccccc1)C1CCC1` [Compound 67a] the EC50 was at most 500 nM.
With `O=C(N[C@@H](C(=O)N1CCC[C@H]1c1ncc(-c2ccc(-c3ccc(-c4cnc([C@@H]5CCCN5C(=O)[C@H](NC(=O)C5CCCCC5)c5ccccc5)s4)cc3)cc2)s1)c1ccccc1)C1CCCCC1` [Compound 70a] the EC50 was at most 500 nM.
Compound `O=C(Cc1ccccc1)N[C@@H](C(=O)N1CCC[C@H]1c1ncc(-c2ccc(-c3ccc(-c4cnc([C@@H]5CCCN5C(=O)[C@H](NC(=O)Cc5ccccc5)c5ccccc5)s4)cc3)cc2)s1)c1ccccc1` [Compound 74a] has an EC50 of at most 500 nM.
With `O=C(N[C@@H](C(=O)N1CCC[C@H]1c1ncc(-c2ccc(-c3ccc(-c4cnc([C@@H]5CCCN5C(=O)[C@H](NC(=O)c5ccco5)c5ccccc5)s4)cc3)cc2)s1)c1ccccc1)c1ccco1` [Compound 76a] the EC50 was at most 500 nM.
In the case of `O=C(N[C@@H](C(=O)N1CCC[C@H]1c1ncc(-c2ccc(-c3ccc(-c4cnc([C@@H]5CCCN5C(=O)[C@H](NC(=O)c5ccncc5)c5ccccc5)s4)cc3)cc2)s1)c1ccccc1)c1ccncc1` [Compound 84a], the EC50 is reported as at most 500 nM.
